In patent US5041436A, “1-arylsulphonyl-2-piperidinone derivatives, process and intermediates for the preparation thereof, their application as antispasmodics and compositions containing them” (Roussel Uclaf, priority 1989, dated 1991):
Like-named read-outs stand apart in the source and are kept apart here.

Assays:
[1] = system: isolated guinea pig ileum, contractions induced by acetyl choline; test: Antagonist action on contractions induced by acetyl choline, isolated guinea pig ileum; conditions: acetyl choline 1×10^-6 M; contact time one minute; 37° C.; read-out: Antagonist to different agents (IC50), ACh
Description: (§1) The interaction of the compounds with different receptors was assessed on isolated guinea pig ileum according to the following method.
(§2) Guinea pig ileum segments measuring 2.5-3 cm were washed and immediately suspended in a bath containing 10 ml of Tyrode's solution at 37° C. aerated with a mixture of oxygen (95%) and carbon dioxide (5%). After a stabilization period of at least 30 minutes, the contractions were recorded, maintaining the preparation under constant tension of 1 g using a gauge connected to a polygraph. The agonist action was assessed by leaving the compound in contact with the isolated tissue for a period necessary for expressing the maximal contraction; the preparation was then washed with Tyrode's solution. The next dose was added to the bath only after the preparation had returned to its base line. As a reference product, arecoline was employed. The antagonist action was assessed on contractions induced by acetyl choline (1×10^-6 M), histamine (1×10^-5 M) and barium chloride (2×10^-4 M). Atropine, diphenhydramine and papaverine were emplohyed as reference products. The contact time before adding the agonist was one minute.
(§3) For each compound, the dose-response curves are obtained with 4 to 6 different concentrations and 3 to 5 independent tests. The agonist activity is expressed by pD2 (negative logarithm of the dose which produces 50% of maximum effect). The antagonist activity is expressed by IC50 (concentration inhibiting 50% of the maximal response).

[2] = system: cholinomimetic effects induced by carbachol; test: In vivo anticholinergic action: inhibition of cholinomimetic effects induced by carbachol in mice; set-up: species or system CD1 male mice; conditions: Mus musculus, ip; for ED (1 degree C): rectal temperature, read-out: Body temperature: dose increasing by 1° C. the hypothermic effect induced by the cholinergic agent
Description: The anticholinergic activity of the compounds was determined by assessing the capacity to inhibit the cholinomimetic effects induced by carbachol. Atropine sulphate was employed as a reference product.
CD1 male mice weighing 25 to 30 g were used. They were distributed in groups of 6 animals and treated intraperitoneally with scalar doses of the products or 0.25% Methocel for the controls. 12 animals were used for each dose. 30 minutes after administration of the compounds, the mice were injected subcutaneously with 1 mg/kg of carbachol dissolved in physiological saline.
Each animal was examined 30 minutes after the injection of carbachol to assess the presence of diarrhoea, salivation and eye watering; in addition, the body temperature was measured by means of a thermocouple inserted 1.5 cm into the rectum.
For each compound, we have determined and recorded in the following table the dose capable of inhibiting the appearance of the carbachol-induced cholinometric symptoms in 50% of the animals, and of increasing by 1° C. the hypothermic effect induced by the cholinergic agent.

[3] = system: isolated guinea pig ileum, contractions induced by barium chloride; test: Antagonist action on contractions induced by barium chloride, isolated guinea pig ileum; conditions: barium chloride 2×10^-4 M; contact time one minute; 37° C.; read-out: Antagonist to different agents (IC50), BaCl2
Description: as §1, §2, §3

[4] = target: T1, Muscarinic receptor 1 (Rattus norvegicus, UniProt P08482); test: Binding to muscarinic receptor 1 ([^3 H]pirenzepine), rat cortex; conditions: for IC50: 0.25 nM [^3 H]pirenzepine, 60 minutes at 25° C., pH 7.4, rat cortex, read-out: Affinity for M1 muscarinic receptors, [^3 H]pirenzepine, IC50; for affinity for the muscarinic receptor (in words): summary of Table 1
T1 construct: cortices removed from the brains of male rats; from tissue; host or cells: rat brain cortex homogenate
T1 sequence (P08482 1-460): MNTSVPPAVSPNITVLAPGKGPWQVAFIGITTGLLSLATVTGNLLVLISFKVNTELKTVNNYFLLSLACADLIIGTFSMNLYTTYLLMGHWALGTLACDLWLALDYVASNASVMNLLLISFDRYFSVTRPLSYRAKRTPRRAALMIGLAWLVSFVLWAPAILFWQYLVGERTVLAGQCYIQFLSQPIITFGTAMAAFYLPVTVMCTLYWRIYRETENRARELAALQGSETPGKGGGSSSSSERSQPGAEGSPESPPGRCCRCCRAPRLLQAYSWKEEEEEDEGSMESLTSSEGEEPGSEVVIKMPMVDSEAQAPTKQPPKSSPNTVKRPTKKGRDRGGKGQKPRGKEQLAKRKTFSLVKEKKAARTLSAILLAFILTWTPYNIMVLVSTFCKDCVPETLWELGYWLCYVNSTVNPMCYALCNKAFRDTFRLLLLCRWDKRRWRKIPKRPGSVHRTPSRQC
Description: (§4) 1) Binding to different brain receptors.
Preparation of this is carried out from cortices removed from the brains of male rats weighing 150 to 200 g (Iffa Credo), ground in a Polytron in a 10 mM Na/K buffer pH 7.4. After incubation (0.5 ml aliquots of homogenate) for 60 minutes at 25° C. in the presence of 0.25 nM [^3 H]pirenzepine, either alone, or with the test product, or with an excess of 10^-5 M pirenzepine (to determine the non-specifically bound radioactivity), the incubates are cooled and filtered.
The filtration is performed on Whatman GF/C filters prewashed in a 0.05% strength solution of polyethylenimine. The filters are rinsed with 3×5 ml of 10 mM Na/K phosphate buffer pH 7.4 and the measurements are then performed by liquid scintillation.
(§5) The results are expressed as an IC50 (concentration needed to inhibit by 50% the specifically bound radioactivity).

[5] = target: Muscarinic receptor 2; test: Binding to muscarinic receptor 2 ([^3 H]quinuclidinyl benzylate), rat brain; conditions: 0.3 nM [^3 H]quinuclidinyl benzylate, 60 minutes at 25° C., pH 7.5, rat brain; read-out: Affinity for M2 muscarinic receptors, [^3 H]quinuclidinyl benzylate, IC50
Description: as §4
The preparation is performed from brains of male rats weighing 150 to 200 g (Iffa Credo).
The brains are ground (Teflon-glass) in 0.32M sucrose solution. The homogenate is centrifuged for 10 minutes at 1,000 g (0°-4° C.)
The supernatant obtained is collected and centrifuged at 30,000 g for 15 minutes (0°-4° C.).
The regulus is resuspended in 50 mM Tris buffer pH 7.5 and the new homogenate is centrifuged again at 30,000 g for 15 minutes (0°-4° C.).
After removal of the supernatant, the regulus may be used immediately or stored for up to 1 month at -30° C.
For an experiment, the regulus are first thawed, if necessary, at room temperature and resuspended using a Dounce in 50 mM Tris buffer pH 7.5. 2 ml aliquots are incubated for 60 minutes at 25° C. in the presence of 0.3 nM [^3 H]quinuclidinyl benzylate, either alone, or with the test product, or with 10^-5 M benzatropine to determine the non-specifically bound radioactivity.
At the end of the incubation period, the incubate tubes are cooled to 4° C. and filtered rapidly on Whatman GF/C filters. The filters are rinsed with 3×5 ml of […] Tris buffer pH 7.5 and the measurements are then performed by liquid scintillation (Henry I. Yamamura, Solomon H. Snyder, Proc. Nat. Acad. Sc. (1974) 71, No. 5, 1725-1729).
as §5

[6] = target: dopamine receptors; test: Binding to other brain receptors: dopamine; conditions: negligible affinity
From the text: as §4

[7] = target: histamine receptors; test: Binding to other brain receptors: histamine; conditions: negligible affinity
From the text: as §4

[8] = target: serotonin 5-HT1 receptors; test: Binding to other brain receptors: serotonin 5-HT1; conditions: negligible affinity
From the text: as §4

[9] = target: T2, serotonin 5-HT2 receptors (Homo sapiens, UniProt P28223); test: Binding to other brain receptors: serotonin 5-HT2; conditions: negligible affinity
T2 construct: from tissue
T2 sequence (P28223 whole entry): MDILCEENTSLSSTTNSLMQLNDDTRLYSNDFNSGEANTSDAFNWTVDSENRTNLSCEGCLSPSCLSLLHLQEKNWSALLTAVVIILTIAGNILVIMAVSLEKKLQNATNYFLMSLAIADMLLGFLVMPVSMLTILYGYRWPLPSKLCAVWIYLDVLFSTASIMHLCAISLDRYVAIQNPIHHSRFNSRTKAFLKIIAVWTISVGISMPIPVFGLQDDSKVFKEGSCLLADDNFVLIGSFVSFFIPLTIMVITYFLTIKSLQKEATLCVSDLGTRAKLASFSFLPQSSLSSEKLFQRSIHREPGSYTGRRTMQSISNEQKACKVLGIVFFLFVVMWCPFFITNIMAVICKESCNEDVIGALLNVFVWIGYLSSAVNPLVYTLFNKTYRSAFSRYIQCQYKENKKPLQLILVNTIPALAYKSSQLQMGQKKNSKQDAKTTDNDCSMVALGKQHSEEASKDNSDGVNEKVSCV
From the text: as §4

[10] = target: benzodiazepines receptors; test: Binding to other brain receptors: benzodiazepines; conditions: negligible affinity
From the text: as §4

[11] = target: GABA receptors; test: Binding to other brain receptors: GABA; conditions: negligible affinity
From the text: as §4

[12] = target: adrenoreceptors alpha1; test: Binding to other brain receptors: adrenoreceptor alpha1; conditions: negligible affinity
From the text: as §4

[13] = target: adrenoreceptors alpha2; test: Binding to other brain receptors: adrenoreceptor alpha2; conditions: negligible affinity
From the text: as §4

[14] = target: T3, adrenoreceptors beta1 (Homo sapiens, UniProt P08588); test: Binding to other brain receptors: adrenoreceptor beta1; conditions: negligible affinity
T3 construct: from tissue
T3 sequence (P08588 whole entry): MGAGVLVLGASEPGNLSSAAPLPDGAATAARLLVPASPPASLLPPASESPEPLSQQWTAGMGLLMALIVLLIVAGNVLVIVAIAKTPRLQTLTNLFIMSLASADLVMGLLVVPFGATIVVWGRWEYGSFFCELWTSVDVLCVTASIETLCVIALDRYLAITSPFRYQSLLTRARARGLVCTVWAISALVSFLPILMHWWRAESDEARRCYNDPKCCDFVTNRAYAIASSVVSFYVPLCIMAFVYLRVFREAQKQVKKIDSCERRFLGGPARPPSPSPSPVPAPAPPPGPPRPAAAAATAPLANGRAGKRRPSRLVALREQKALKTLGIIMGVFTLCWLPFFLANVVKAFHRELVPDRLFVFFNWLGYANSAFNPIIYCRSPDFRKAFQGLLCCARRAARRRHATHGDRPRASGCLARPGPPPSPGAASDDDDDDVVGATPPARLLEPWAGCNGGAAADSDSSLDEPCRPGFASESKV
From the text: as §4

[15] = target: T4, adrenoreceptors beta2 (Homo sapiens, UniProt P07550); test: Binding to other brain receptors: adrenoreceptor beta2; conditions: negligible affinity
T4 construct: from tissue
T4 sequence (P07550 whole entry): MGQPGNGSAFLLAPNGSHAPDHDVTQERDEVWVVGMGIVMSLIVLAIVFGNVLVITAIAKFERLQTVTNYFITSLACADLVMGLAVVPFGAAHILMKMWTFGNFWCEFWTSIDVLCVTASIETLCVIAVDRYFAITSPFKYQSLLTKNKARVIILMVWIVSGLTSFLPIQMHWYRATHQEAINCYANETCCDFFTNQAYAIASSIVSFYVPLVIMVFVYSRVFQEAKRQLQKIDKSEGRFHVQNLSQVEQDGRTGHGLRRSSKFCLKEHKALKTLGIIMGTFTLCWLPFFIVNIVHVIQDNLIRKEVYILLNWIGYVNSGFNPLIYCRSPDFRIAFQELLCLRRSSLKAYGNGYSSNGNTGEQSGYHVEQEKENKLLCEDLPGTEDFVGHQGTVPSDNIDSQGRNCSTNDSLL
From the text: as §4

[16] = target: T5, opiate receptors mu (Homo sapiens, UniProt P35372); test: Binding to other brain receptors: opiate mu; conditions: negligible affinity
T5 construct: from tissue
T5 sequence (P35372 whole entry): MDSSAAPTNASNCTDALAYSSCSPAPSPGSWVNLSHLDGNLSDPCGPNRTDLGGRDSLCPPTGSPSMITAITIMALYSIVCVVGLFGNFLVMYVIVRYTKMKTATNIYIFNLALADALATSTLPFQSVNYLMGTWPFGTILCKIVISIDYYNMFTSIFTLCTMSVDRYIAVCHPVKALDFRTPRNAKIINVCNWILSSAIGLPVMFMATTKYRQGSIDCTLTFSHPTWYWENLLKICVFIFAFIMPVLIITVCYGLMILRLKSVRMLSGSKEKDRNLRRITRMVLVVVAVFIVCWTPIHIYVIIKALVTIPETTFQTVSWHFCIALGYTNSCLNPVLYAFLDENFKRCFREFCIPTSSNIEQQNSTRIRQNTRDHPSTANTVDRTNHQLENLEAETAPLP
From the text: as §4

[17] = target: T6, opiate receptors kappa (Homo sapiens, UniProt P41145); test: Binding to other brain receptors: opiate kappa; conditions: negligible affinity
T6 construct: from tissue
T6 sequence (P41145 whole entry): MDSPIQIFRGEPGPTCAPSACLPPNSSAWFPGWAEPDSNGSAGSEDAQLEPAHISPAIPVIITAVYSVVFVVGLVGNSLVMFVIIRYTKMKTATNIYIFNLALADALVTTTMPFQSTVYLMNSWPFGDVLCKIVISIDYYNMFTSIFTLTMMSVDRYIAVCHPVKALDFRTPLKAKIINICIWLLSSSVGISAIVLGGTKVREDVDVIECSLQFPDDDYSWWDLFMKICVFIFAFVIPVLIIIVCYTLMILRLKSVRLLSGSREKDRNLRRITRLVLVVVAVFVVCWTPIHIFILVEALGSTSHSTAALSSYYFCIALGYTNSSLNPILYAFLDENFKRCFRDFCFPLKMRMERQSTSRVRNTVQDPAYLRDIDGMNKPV
From the text: as §4

[18] = system: isolated guinea pig ileum, contractions induced by histamine; test: Antagonist action on contractions induced by histamine, isolated guinea pig ileum; conditions: histamine 1×10^-5 M; contact time one minute; 37° C.; read-out: Antagonist to different agents (IC50), Histam.
Description: as §1
as §2, with “Atropine, diphenhydramine and papaverine were emplohyed as reference products.” left out
as §3

[19] = system: isolated guinea pig ileum; test: Agonist action on isolated guinea pig ileum; conditions: negative logarithm of the dose which produces 50% of maximum effect
Description: as §1, §2, §3

[20] = mice, i.p. 30 minutes before carbachol 1 mg/kg s.c., read-out: Dose inhibiting carbachol-induced diarrhoea in 50% of the animals
[21] = mice, i.p. 30 minutes before carbachol 1 mg/kg s.c., read-out: Dose inhibiting carbachol-induced eye watering in 50% of the animals
[22] = mice, i.p. 30 minutes before carbachol 1 mg/kg s.c.
[23] = mice, i.p. 30 minutes before carbachol 1 mg/kg s.c., read-out: Dose inhibiting carbachol-induced salivation in 50% of the animals

Row | Compound | IC50 [1] | IC50 [3] | IC50 [4] | affinity for the muscarinic receptor (in words) [4] | IC50 [5] | IC50 [6] | IC50 [7] | IC50 [8] | IC50 [9] | IC50 [10] | IC50 [11] | IC50 [12] | IC50 [13] | IC50 [14] | IC50 [15] | IC50 [16] | IC50 [17] | IC50 [18] | Agonist action pD2 [19] | ED50 [2, 20] | further results
1 | CN1[C@@H]2CC[C@H]1C[C@@H](OC(=O)C(CO)c1ccccc1)C2 (some centres unmarked) [Atropine, reference compound] | 0.0095 µM |  |  |  |  |  |  |  |  |  |  |  |  |  |  |  |  |  |  |  | ED50 ([2]; read-out: Dose inhibiting carbachol-induced diarrhoea in 50% of the animals): 0.04 mg/kg; ED50 ([2]; read-out: Dose inhibiting carbachol-induced eye watering in 50% of the animals): 0.05 mg/kg; ED50 ([2]; read-out: Dose inhibiting carbachol-induced salivation in 50% of the animals): 0.06 mg/kg
2 | COc1ccc(Cc2nccc3cc(OC)c(OC)cc23)cc1OC [Papaverine, papaverine, reference compound] |  | 45 µM |  |  |  |  |  |  |  |  |  |  |  |  |  |  |  |  |  |  | 
3 | O=C1CCCCN1S(=O)(=O)c1ccc(N2CCCCCC2)cc1 [Example 5, 1-[4-(1-Hexahydroazepinyl)benzenesulphonyl]-2-piperidinone] | 0.27 µM | > 10 µM | 0.049 µM | noteworthy advantageous affinity for the muscarinic receptor, and mainly for the M1 type receptor | 0.66 µM | 5 to 10 µM | 5 to 10 µM | 5 to 10 µM | 5 to 10 µM | 5 to 10 µM | 5 to 10 µM | 5 to 10 µM | 5 to 10 µM | 5 to 10 µM | 5 to 10 µM | 5 to 10 µM | 5 to 10 µM | > 10 µM | < 5 | 2 mg/kg | ED50 [2, 21]: > 50 mg/kg; ED (1 degree C) [2, 22]: 50 mg/kg
4 | COC(=O)C1=CCCN(C)C1 [Arecoline, arecoline, reference compound] |  |  |  |  |  |  |  |  |  |  |  |  |  |  |  |  |  |  | 6.68 |  | 
5 | CCN(CC)c1ccc(S(=O)(=O)N2CCCCC2=O)cc1 [Example 2, 1-[4-(Diethylamino)benzenesulphonyl]-2-piperidinone] | 0.93 µM | > 10 µM | 0.314 µM | noteworthy advantageous affinity for the muscarinic receptor, and mainly for the M1 type receptor | 4.6 µM | 5 to 10 µM | 5 to 10 µM | 5 to 10 µM | 5 to 10 µM | 5 to 10 µM | 5 to 10 µM | 5 to 10 µM | 5 to 10 µM | 5 to 10 µM | 5 to 10 µM | 5 to 10 µM | 5 to 10 µM | > 10 µM | < 5 | 5 mg/kg | ED50 [2, 21]: > 50 mg/kg; ED50 [2, 23]: > 50 mg/kg; ED (1 degree C) [2, 22]: > 50 mg/kg
6 | O=C1CCCCN1S(=O)(=O)c1ccc(N2CCCCC2)cc1 [Example 4, 1-[4-(1-Piperidinyl)benzenesulphonyl] -2-piperidinone] | 1.5 µM | > 10 µM | 0.128 µM | noteworthy advantageous affinity for the muscarinic receptor, and mainly for the M1 type receptor | 2.24 µM | 5 to 10 µM | 5 to 10 µM | 5 to 10 µM | 5 to 10 µM | 5 to 10 µM | 5 to 10 µM | 5 to 10 µM | 5 to 10 µM | 5 to 10 µM | 5 to 10 µM | 5 to 10 µM | 5 to 10 µM | > 10 µM | < 5 | 6 mg/kg | ED50 [2, 21]: > 50 mg/kg; ED50 [2, 23]: > 50 mg/kg; ED (1 degree C) [2, 22]: > 50 mg/kg
